According to US20090304692A1, “TRIAZINE COMPOUNDS AS PI3 KINASE AND MTOR INHIBITORS” (Wyeth, priority 2008, published 2009):
Read-outs that look alike come from different tables or passages of the source.

How the values were obtained:
PI3K-α = PI3K-α (Homo sapiens, UniProt P42336); test: PI3K-alpha fluorescence polarization assay; details: read-out: IC50 PI3Kα
PI3K-γ = PI3K-γ (Homo sapiens, UniProt P48736); test: PI3K-gamma fluorescence polarization assay
[1] = tested on: human prostate LNCap tumor cell line; test: In vitro cell culture growth assay (MTS), LNCap; details: Homo sapiens, LNCaP, 72 h, read-out: IC50 LNCap
Human mTOR (FLAG-TOR) = Human mTOR (FLAG-TOR) (Homo sapiens, UniProt P42345); test: mTOR kinase assay (DELFIA format, purified enzyme); type: biochemical; details: read-out: IC50 mTOR
Chain of Human mTOR (FLAG-TOR) (P42345 1360-2549 limits assumed): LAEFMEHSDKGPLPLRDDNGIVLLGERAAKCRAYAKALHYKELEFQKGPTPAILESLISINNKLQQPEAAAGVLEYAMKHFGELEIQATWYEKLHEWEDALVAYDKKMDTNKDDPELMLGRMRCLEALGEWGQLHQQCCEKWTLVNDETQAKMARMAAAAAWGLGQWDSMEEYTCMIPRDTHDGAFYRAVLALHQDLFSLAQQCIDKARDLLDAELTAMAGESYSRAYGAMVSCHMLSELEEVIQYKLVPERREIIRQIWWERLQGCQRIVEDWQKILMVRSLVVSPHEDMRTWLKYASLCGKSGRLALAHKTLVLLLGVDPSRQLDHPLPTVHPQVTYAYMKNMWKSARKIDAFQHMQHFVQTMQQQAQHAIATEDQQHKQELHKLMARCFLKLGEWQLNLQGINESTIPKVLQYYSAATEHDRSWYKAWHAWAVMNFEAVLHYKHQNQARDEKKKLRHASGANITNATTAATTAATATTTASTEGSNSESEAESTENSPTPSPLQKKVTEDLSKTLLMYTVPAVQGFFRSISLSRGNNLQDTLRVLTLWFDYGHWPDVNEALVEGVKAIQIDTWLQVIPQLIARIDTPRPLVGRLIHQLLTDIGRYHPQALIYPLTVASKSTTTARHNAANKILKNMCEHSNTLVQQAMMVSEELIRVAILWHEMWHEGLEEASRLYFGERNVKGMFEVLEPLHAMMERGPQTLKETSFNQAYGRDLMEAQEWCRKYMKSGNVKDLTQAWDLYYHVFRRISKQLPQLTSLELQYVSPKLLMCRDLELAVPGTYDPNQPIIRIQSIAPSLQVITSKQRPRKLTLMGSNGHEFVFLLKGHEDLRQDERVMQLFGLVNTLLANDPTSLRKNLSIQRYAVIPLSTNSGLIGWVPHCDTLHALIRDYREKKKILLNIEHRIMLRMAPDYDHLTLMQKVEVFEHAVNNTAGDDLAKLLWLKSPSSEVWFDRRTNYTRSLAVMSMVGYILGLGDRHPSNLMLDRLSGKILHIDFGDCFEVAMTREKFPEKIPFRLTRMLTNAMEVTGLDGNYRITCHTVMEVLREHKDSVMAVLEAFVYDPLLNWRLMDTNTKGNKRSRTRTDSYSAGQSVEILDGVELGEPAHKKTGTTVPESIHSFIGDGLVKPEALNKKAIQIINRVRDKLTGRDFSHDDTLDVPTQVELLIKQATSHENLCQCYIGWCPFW

Chain of PI3K-α (P42336 whole entry, species assumed): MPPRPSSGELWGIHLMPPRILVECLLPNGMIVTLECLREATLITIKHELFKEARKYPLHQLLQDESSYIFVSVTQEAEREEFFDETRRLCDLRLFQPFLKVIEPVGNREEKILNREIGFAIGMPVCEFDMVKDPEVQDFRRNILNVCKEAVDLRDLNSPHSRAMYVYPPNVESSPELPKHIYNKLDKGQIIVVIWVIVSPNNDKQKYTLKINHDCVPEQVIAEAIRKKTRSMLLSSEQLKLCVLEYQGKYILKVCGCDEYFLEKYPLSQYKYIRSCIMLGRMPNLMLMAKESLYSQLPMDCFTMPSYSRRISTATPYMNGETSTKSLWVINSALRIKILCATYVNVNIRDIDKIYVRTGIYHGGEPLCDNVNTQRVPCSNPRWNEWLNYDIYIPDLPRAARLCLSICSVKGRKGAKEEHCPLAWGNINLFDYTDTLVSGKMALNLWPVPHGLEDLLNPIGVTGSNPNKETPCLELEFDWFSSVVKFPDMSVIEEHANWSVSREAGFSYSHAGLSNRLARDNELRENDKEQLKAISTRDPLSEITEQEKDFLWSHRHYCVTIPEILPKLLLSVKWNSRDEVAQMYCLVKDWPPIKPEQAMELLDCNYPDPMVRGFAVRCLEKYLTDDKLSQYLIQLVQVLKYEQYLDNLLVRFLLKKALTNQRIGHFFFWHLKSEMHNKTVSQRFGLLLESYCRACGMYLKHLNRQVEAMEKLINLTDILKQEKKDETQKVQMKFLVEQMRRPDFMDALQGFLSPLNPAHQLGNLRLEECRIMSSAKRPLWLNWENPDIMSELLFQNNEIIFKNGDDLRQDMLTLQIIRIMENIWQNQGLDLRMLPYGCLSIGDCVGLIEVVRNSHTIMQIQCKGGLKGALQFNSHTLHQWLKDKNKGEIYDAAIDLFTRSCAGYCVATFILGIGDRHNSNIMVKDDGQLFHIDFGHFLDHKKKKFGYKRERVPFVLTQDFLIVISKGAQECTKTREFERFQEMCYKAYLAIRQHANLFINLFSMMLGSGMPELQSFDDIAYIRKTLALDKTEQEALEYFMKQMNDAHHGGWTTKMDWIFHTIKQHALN
Chain of PI3K-α (P27986 whole entry partner, species assumed): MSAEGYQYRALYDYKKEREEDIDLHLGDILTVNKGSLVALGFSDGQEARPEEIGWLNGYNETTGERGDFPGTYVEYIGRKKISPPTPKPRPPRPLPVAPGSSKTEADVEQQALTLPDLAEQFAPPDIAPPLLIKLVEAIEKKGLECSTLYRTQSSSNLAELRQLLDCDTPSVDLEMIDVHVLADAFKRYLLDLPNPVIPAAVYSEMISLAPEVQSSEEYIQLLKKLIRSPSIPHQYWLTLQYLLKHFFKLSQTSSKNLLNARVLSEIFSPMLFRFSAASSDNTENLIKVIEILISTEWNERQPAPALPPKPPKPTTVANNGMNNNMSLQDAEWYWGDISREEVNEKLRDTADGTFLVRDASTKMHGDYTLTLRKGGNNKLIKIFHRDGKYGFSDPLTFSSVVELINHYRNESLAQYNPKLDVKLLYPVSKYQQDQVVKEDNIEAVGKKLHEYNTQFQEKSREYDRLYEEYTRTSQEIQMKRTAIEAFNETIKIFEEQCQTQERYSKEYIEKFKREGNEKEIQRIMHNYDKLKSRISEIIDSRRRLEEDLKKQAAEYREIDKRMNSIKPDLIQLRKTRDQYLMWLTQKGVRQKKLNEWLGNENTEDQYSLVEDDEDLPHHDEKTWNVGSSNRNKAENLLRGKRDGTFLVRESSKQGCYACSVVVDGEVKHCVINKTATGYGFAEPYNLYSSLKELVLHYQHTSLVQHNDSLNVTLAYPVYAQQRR
Chain of PI3K-γ (P48736 whole entry, species assumed): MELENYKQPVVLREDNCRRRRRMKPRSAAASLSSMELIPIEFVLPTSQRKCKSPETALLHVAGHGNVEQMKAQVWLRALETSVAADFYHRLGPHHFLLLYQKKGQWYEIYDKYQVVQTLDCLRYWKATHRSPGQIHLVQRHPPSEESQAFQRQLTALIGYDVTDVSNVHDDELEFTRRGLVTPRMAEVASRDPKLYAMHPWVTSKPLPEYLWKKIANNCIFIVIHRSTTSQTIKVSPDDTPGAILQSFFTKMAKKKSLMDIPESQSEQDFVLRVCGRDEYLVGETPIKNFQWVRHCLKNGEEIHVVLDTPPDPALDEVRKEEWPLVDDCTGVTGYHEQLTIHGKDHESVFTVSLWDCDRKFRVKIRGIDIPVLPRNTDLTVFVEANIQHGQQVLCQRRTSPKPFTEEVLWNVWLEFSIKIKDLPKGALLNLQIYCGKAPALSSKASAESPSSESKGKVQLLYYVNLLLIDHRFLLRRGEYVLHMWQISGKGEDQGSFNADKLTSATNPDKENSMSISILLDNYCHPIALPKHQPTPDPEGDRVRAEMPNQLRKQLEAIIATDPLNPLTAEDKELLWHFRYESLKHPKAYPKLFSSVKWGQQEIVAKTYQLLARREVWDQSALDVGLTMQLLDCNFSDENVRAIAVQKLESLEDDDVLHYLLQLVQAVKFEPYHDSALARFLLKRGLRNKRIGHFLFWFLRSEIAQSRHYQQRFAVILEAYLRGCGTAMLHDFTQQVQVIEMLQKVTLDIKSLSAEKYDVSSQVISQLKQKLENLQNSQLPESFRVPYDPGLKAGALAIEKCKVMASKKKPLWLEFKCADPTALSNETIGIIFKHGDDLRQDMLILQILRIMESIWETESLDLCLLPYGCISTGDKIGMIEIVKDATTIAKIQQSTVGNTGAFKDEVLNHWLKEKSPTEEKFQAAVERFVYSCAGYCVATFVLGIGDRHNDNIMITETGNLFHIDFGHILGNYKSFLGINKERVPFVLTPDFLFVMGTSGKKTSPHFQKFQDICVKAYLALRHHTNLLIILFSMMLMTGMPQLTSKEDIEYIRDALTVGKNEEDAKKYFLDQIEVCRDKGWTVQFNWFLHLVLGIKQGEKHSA

Structure (SMILES) | IC50 (PI3K-α) [nM] | IC50 (PI3K-γ; read-out: IC50 PI3Kγ) [nM] | IC50 [1] [nM] | IC50 (Human mTOR (FLAG-TOR)) [nM] | IC50 (PI3K-γ) [nM]
C[C@@H]1COCCN1c1nc(-c2ccc(NC(=O)Nc3ccncc3)cc2)nc(N2C[C@@H]3C[C@H]2CO3)n1 [Example 410, 1-(4-(4-((1S,4S)-2-oxa-5-azabicyclo[2.2.1]heptan-5-yl)-6-((R)-3-methylmorpholino)-1,3,5-triazin-2-yl)phenyl)-3-(pyridin-4-yl)urea] | 826 | 5680 | 110 | 2.3 | –
C[C@@H]1COCCN1c1nc(-c2ccc(NC(=O)Nc3cccnc3)cc2)nc(N2C[C@@H]3C[C@H]2CO3)n1 [Example 411, 1-(4-(4-((1S,4S)-2-oxa-5-azabicyclo[2.2.1]heptan-5-yl)-6-((R)-3-methylmorpholino)-1,3,5-triazin-2-yl)phenyl)-3-(pyridin-3-yl)urea] | 1900 | – | 250 | 3.6 | > 10000
C[C@@H]1COCCN1c1nc(-c2ccc(NC(=O)Nc3ccc(N4CCN(C)CC4)cc3)cc2)nc(N2C[C@@H]3C[C@H]2CO3)n1 [Example 412, 1-(4-(4-((1S,4S)-2-oxa-5-azabicyclo[2.2.1]heptan-5-yl)-6-((R)-3-methylmorpholino)-1,3,5-triazin-2-yl)phenyl)-3-(4-(4-methylpiperazin-1-yl)phenyl)urea] | 1230 | 7480 | 25 | 7.3 | –
C[C@@H]1COCCN1c1nc(-c2ccc(NC(=O)Nc3ccc(CN4CCN(C)CC4)cc3)cc2)nc(N2C[C@@H]3C[C@H]2CO3)n1 [Example 413, 1-(4-(4-((1S,4S)-2-oxa-5-azabicyclo[2.2.1]heptan-5-yl)-6-((R)-3-methylmorpholino)-1,3,5-triazin-2-yl)phenyl)-3-(4-((4-methylpiperazin-1-yl)methyl)phenyl)urea] | 1520 | – | 150 | 9.2 | > 10000
C[C@@H]1COCCN1c1nc(-c2ccc(NC(=O)Nc3ccc(CN4CCCC4)cc3)cc2)nc(N2C[C@@H]3C[C@H]2CO3)n1 [Example 414, 1-(4-(4-((1S,4S)-2-oxa-5-azabicyclo[2.2.1]heptan-5-yl)-6-((R)-3-methylmorpholino)-1,3,5-triazin-2-yl)phenyl)-3-(4-(pyrrolidin-1-ylmethyl)phenyl)urea] | 969 | 5450 | 120 | 6.9 | –
C[C@@H]1COCCN1c1nc(-c2ccc(NC(=O)Nc3cccnc3)cc2)nc(N2C3CCC2COC3)n1 [Example 415, 1-(4-(4-(3-oxa-8-azabicyclo[3.2.1]octan-8-yl)-6-((R)-3-methylmorpholino)-1,3,5-triazin-2-yl)phenyl)-3-(pyridin-3-yl)urea] | 787 | 3260 | 29 | 0.38 | –
C[C@@H]1COCCN1c1nc(-c2ccc(NC(=O)Nc3ccncc3)cc2)nc(N2C3CCC2COC3)n1 [Example 416, 1-(4-(4-(3-oxa-8-azabicyclo[3.2.1]octan-8-yl)-6-((R)-3-methylmorpholino)-1,3,5-triazin-2-yl)phenyl)-3-(pyridin-4-yl)urea] | 446 | 2500 | 12 | 0.55 | –
C[C@@H]1COCCN1c1nc(-c2ccc(NC(=O)Nc3ccc(CN4CCCC4)cc3)cc2)nc(N2C3CCC2COC3)n1 [Example 418, 1-(4-(4-(3-oxa-8-azabicyclo[3.2.1]octan-8-yl)-6-((R)-3-methylmorpholino)-1,3,5-triazin-2-yl)phenyl)-3-(4-(pyrrolidin-1-ylmethyl)phenyl)urea] | 520 | 3480 | 40 | 1.5 | –
C[C@@H]1COCCN1c1nc(-c2ccc(NC(=O)Nc3ccc(N4CCN(C)CC4)cc3)cc2)nc(C2CCOCC2)n1 [Example 421, (R)-1-(4-(4-(3-methylmorpholino)-6-(tetrahydro-2H-pyran-4-yl)-1,3,5-triazin-2-yl)phenyl)-3-(4-(4-methylpiperazin-1-yl)phenyl)urea] | 414 | 1570 | 1 | 0.72 | –
C[C@@H]1COCCN1c1nc(-c2ccc(NC(=O)Nc3ccc(N4CCNCC4)cc3)cc2)nc(C2CCOCC2)n1 [Example 422, (R)-1-(4-(4-(3-methylmorpholino)-6-(tetrahydro-2H-pyran-4-yl)-1,3,5-triazin-2-yl)phenyl)-3-(4-(piperazin-1-yl)phenyl)urea] | 269 | 1220 | 2 | 0.79 | –
CN1CCN(c2ccc(NC(=O)Nc3ccc(-c4nc(N5CC[S+]([O-])CC5)nc(N5C6CCC5COC6)n4)cc3)cc2)CC1 [Example 426, 1-(4-(4-(3-oxa-8-azabicyclo[3.2.1]octan-8-yl)-6-sulfoxymorpholino-1,3,5-triazin-2-yl)phenyl)-3-(4-(4-methylpiperazin-1-yl)phenyl)urea] | 1220 | 8480 | 700 | 53 | –
C[C@@H]1COCCN1c1nc(-c2ccc(NC(=O)Nc3ccc(OCCN(C)C)cc3)cc2)nc(C2CCOCC2)n1 [Example 427, (R)-1-(4-(2-(dimethylamino)ethoxy)phenyl)-3-(4-(4-(3-methylmorpholino)-6-(tetrahydro-2H-pyran-4-yl)-1,3,5-triazin-2-yl)phenyl)urea] | 580 | 1420 | 7 | 1.3 | –
CCN1CCN(c2ccc(NC(=O)Nc3ccc(-c4nc(C5CCOCC5)nc(N5CCOC[C@H]5C)n4)cc3)cc2)CC1 [Example 428, (R)-1-(4-(4-ethylpiperazin-1-yl)phenyl)-3-(4-(4-(3-methylmorpholino)-6-(tetrahydro-2H-pyran-4-yl)-1,3,5-triazin-2-yl)phenyl)urea] | 450 | 840 | 1 | 1.4 | –
CC(C)N1CCN(c2ccc(NC(=O)Nc3ccc(-c4nc(C5CCOCC5)nc(N5CCOC[C@H]5C)n4)cc3)cc2)CC1 [Example 429, (R)-1-(4-(4-isopropylpiperazin-1-yl)phenyl)-3-(4-(4-(3-methylmorpholino)-6-(tetrahydro-2H-pyran-4-yl)-1,3,5-triazin-2-yl)phenyl)urea] | 483 | 1000 | 9 | 1.9 | –
C[C@@H]1COCCN1c1nc(-c2ccc(NC(=O)Nc3ccc(N4CCC(N(C)C)CC4)cc3)cc2)nc(C2CCOCC2)n1 [Example 430, (R)-1-(4-(4-(dimethylamino)piperidin-1-yl)phenyl)-3-(4-(4-(3-methylmorpholino)-6-(tetrahydro-2H-pyran-4-yl)-1,3,5-triazin-2-yl)phenyl)urea] | 402 | 484 | 16 | 1.7 | –
C[C@@H]1COCCN1c1nc(-c2ccc(NC(=O)Nc3ccc(C(=O)N4CCN(C)CC4)cc3)cc2)nc(C2CCOCC2)n1 [Example 431, (R)-1-(4-(4-(3-methylmorpholino)-6-(tetrahydro-2H-pyran-4-yl)-1,3,5-triazin-2-yl)phenyl)-3-(4-(4-methylpiperazine-1-carbonyl)phenyl)urea] | 43 | 340 | < 0.8 | 1 | –
CC(C)N1CCN(C(=O)c2ccc(NC(=O)Nc3ccc(-c4nc(C5CCOCC5)nc(N5CCOC[C@H]5C)n4)cc3)cc2)CC1 [Example 432, (R)-1-(4-(4-isopropylpiperazine-1-carbonyl)phenyl)-3-(4-(4-(3-methylmorpholino)-6-(tetrahydro-2H-pyran-4-yl)-1,3,5-triazin-2-yl)phenyl)urea] | 90 | 480 | < 0.8 | 0.69 | –
O=C(Nc1ccc(-c2nc(C3CCOCC3)nc(N3C4CCC3COC4)n2)cc1)Nc1ccc(N2CCN(C3CC3)CC2)cc1 [Example 436, 1-(4-(4-(3-oxa-8-azabicyclo[3.2.1]octan-8-yl)-6-(tetrahydro-2H-pyran-4-yl)-1,3,5-triazin-2-yl)phenyl)-3-(4-(4-cyclopropylpiperazin-1-yl)phenyl)urea] | 749 | 3120 | 10 | 0.62 | –
C[C@@H]1COCCN1c1nc(-c2ccc(NC(=O)Nc3ccc(N4CCN(C5CC5)CC4)cc3)cc2)nc(N2C3CCC2COC3)n1 [Example 442, 1-(4-(4-(3-oxa-8-azabicyclo[3.2.1]octan-8-yl)-6-((R)-3-methylmorpholino)-1,3,5-triazin-2-yl)phenyl)-3-(4-(4-cyclopropylpiperazin-1-yl)phenyl)urea] | 1760 | – | 13 | 1.5 | > 10000
C[C@@H]1COCCN1c1nc(-c2ccc(NC(=O)Nc3ccc(N4CCN(C)CC4)nc3)cc2)nc(N2C3CCC2COC3)n1 [Example 446, 1-(4-(4-(3-oxa-8-azabicyclo[3.2.1]octan-8-yl)-6-((R)-3-methylmorpholino)-1,3,5-triazin-2-yl)phenyl)-3-(6-(4-methylpiperazin-1-yl)pyridin-3-yl)urea] | 835 | 4010 | 15 | 0.82 | –
CCN1CCN(c2ccc(NC(=O)Nc3ccc(-c4nc(N5CCOC[C@H]5C)nc(N5CCOC[C@H]5C)n4)cc3)cc2)CC1 [Example 447, 1-(4-(4,6-bis((R)-3-methylmorpholino)-1,3,5-triazin-2-yl)phenyl)-3-(4-(4-ethylpiperazin-1-yl)phenyl)urea] | 390 | 2800 | 8 | 1.9 | –
CC(C)N1CCN(c2ccc(NC(=O)Nc3ccc(-c4nc(N5CCOC[C@H]5C)nc(N5CCOC[C@H]5C)n4)cc3)cc2)CC1 [Example 448, 1-(4-(4,6-bis((R)-3-methylmorpholino)-1,3,5-triazin-2-yl)phenyl)-3-(4-(4-isopropylpiperazin-1-yl)phenyl)urea] | 519 | – | 18 | 2.3 | > 10000
